Experimental data from article PMC5571211 (Scientific Reports, 2017).

Experiments:
sEH in HepG2 cells = biological target: T1, sEH in HepG2 cells (Homo sapiens, UniProt P34913); test: 14,15-DiHETrE formation in HepG2 cells (cell-based sEH assay); conditions: HepG2 cells; AUDA 5 µM, MK886 0.3 µM, SC57461A 0.3 µM
T1 construct: sEH is constitutively expressed in the human liver cancer cell line HepG2; endogenous in cells; host or cells: HepG2
T1 sequence (P34913 1-555): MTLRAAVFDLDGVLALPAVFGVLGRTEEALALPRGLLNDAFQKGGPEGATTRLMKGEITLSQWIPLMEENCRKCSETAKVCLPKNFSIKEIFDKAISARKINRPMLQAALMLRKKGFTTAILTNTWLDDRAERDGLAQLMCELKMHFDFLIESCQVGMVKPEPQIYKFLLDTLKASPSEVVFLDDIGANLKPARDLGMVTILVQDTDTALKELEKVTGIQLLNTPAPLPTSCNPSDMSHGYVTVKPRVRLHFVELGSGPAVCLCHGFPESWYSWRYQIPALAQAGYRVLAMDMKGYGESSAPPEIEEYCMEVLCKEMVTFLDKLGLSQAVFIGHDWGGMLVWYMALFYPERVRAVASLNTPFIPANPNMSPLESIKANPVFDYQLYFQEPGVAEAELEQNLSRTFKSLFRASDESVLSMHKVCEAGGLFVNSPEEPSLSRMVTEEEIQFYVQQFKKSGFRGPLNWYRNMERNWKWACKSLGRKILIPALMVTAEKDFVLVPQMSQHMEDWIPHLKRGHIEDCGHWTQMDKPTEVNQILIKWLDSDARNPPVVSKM
Experimental: To assay the activity of sEH in a cell-based model, HepG2 cells were harvested by trypsinization, pelleted (1,200 rpm, 5 min, 4 °C) and resuspended in PGC buffer to a final concentration of 1.5 × 10^6 cells/mL. […] Briefly, samples were acidified with four volumes of MilliQ water pH 3.5 containing PBS-HCl and subjected to Waters Sep-Pak® Vac 6cc columns (Waters, Milford, MA, USA), washed once with MilliQ and hexane, and eluted with methylformiate. The nitrogen-dried samples were dissolved in 50% methanol, and 14,15-DiHETrE formation was measured by UPLC-MS/MS using an Acquity™ UPLC system (Waters, Milford, MA, USA) and a QTRAP 5500 Mass Spectrometer (ABSciex, Darmstadt, Germany) equipped with a Turbo V™ Source and electrospray ionization (ESI). […] Ion spray voltage was set to 4000 V, the heater temperature to 500 °C, the declustering potential to 50–80 eV, the entrance potential to 10 eV, the collision cell exit potential to 10–13 eV, collision energies of 10 eV, the spray gas pressure to 40 psi, medium collision gas and the curtain gas pressure to 35 psi.

[1] = tested on: HEK293 cells expressing 5-LOX and FLAP; test: 5-LOX product formation in HEK293 cells expressing 5-LOX and FLAP; assay type: cell-based; conditions: HEK293 expressing 5-LOX and FLAP, A23187 plus 3 µM AA
Experimental: HEK293 cells were cultured in monolayers (37 °C, 5% CO2) in DMEM containing FCS (10%), penicillin (100 U/mL) and streptomycin (100 µg/mL). HEK293 cell lines stably expressing 5-LOX with or without FLAP were selected using geneticin (400 µg/mL) with or without hygromycin (200 µg/mL), respectively, as previously described. Transfection of HEK293 was performed using pcDNA3.1 plasmids and lipofectamine according to the manufacturer’s instructions (Invitrogen, Darmstadt, Germany).
For analysis of 5-LOX product formation in HEK293 cells stably expressing 5-LOX with or without FLAP, cells were harvested by trypsinization, pelleted (1,200 rpm, 5 min, 4 °C) and resuspended in PGC buffer to a final concentration of 1 × 10^6 cells/mL. Aliquots were pre-incubated with test compounds or 0.1% DMSO for 15 min, respectively, and stimulated with 2.5 µM A23187 and 3 µM AA.

monocytes = test: Acute cytotoxicity, MTT assay in monocytes; assay type: cell-based, human; conditions: 24 or 48 hrs; diflapolin 10 µM, staurosporine 3 µM
Experimental: Acute cytotoxicity of the compounds was determined using freshly isolated monocytes. Cells (0.2 × 10^6) per sample were seeded in 100 µL buffer on 96-well plates and treated with the test compounds and appropriate controls for 24 or 48 hrs (37 °C, 5% CO2). After addition of MTT (5 mg/mL) for 2 h (37 °C, 5% CO2), cells were lysed by SDS treatment (10%, pH 4.5) for 16–20 hrs and formazan formation was determined by measurement of absorbance at 570 nm.

recombinant human COX-2 = biological target: T2, recombinant human COX-2 (Homo sapiens, UniProt P35354); test: COX-2 activity, cell-free (12-HHT formation); assay type: biochemical; conditions: 10 µM
T2 construct: purchased Cayman Chemical (Biomol, Hamburg, Germany)
T2 sequence (P35354 18-604): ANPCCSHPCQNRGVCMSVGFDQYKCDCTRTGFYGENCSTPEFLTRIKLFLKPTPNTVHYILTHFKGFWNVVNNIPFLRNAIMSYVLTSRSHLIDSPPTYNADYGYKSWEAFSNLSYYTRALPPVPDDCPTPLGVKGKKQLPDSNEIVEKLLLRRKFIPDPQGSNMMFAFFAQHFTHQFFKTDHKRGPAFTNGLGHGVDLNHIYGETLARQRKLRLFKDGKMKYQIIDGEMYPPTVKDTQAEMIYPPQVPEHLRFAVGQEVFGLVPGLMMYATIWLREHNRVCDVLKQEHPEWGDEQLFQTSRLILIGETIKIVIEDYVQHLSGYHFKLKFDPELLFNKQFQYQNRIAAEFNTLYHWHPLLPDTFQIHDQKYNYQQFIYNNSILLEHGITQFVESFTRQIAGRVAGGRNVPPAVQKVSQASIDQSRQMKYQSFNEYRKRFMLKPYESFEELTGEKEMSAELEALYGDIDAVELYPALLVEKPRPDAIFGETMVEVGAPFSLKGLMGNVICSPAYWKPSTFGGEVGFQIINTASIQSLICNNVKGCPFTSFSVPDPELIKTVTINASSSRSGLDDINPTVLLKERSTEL
Experimental: COX activity was assayed by using purified ovine COX-1 and recombinant human COX-2, respectively. Enzymes were diluted in Tris buffer (100 mM, pH 8) supplemented with glutathione (5 mM), EDTA (100 µM) and hemoglobin (5 µM) to a final concentration of 50 U/mL (COX-1) or 20 U/mL (COX-2) and pre-incubated with test compounds or vehicle (0.1% DMSO) for 5 min at RT. After 30 sec at 37 °C, reactions were started with 5 µM AA (COX-1) or 2 µM AA (COX-2) and stopped after 5 min at 37 °C by addition of one volume of ice-cold methanol. Solid phase extraction was performed as described above after addition of 200 ng of internal PGB1 standard and COX product formation was determined by analysis of 12-HHT formation as reported before.

effect on sEH in the cell-based sEH assay (sEH in HepG2 cells)	SMILES	inhibition of 5-LOX product formation [1]	viability of monocytes, MTT assay (monocytes)	inhibition of COX-2 activity (recombinant human COX-2)
no impact	CC(C)c1ccc2c(c1)c(SC(C)(C)C)c(CC(C)(C)C(=O)O)n2Cc1ccc(Cl)cc1 [MK886, 3-[1-(4-chlorobenzyl)-3-t-butyl-thio-5-isopropylindol-2-yl]-2,2 - dimethylpropanoic acid]	–	–	–
–	Cc1cc(OCc2nc3ccccc3s2)ccc1NC(=O)Nc1ccc(Cl)c(Cl)c1 [diflapolin, N-[4-(benzothiazol-2-ylmethoxy)-2-methylphenyl]-N′-(3,4-dichlorophenyl)urea]	strongly inhibited	did not affect the viability	did not significantly inhibit
